Test results as given in ChEMBL document CHEMBL1126639, “Centrally acting serotonergic and dopaminergic agents. 2. Synthesis and structure-activity relationships of 2,3,3a,4,9,9a-hexahydro-1H-benz[f]indole derivatives” (J Med Chem, 1993).

What was measured:
Rattus norvegicus [1] = test: Effect on the synthesis rates of dopamine (DOPA accumulation) in the rat ventral limbic brain region at 3.7 uM/kg.; format: functional, Limbic system
Mus musculus [2] = test: Antagonism of apomorphine for 0-10 minutes in reserpinized mice when a dose of 3.7 micro mol/kg is administered intraperitoneally; format: functional
Rattus norvegicus [3] = test: Inhibition of firing rates of dopaminergic neurons in the substantia nigra pars compacta by intravenous injection in rats; format: functional
Mus musculus [4] = test: Antagonism of apomorphine in reserpinized mice when a dose of 37 micro mol/kg is administered intraperitoneally; format: functional
Mus musculus [5] = test: Ability to stimulate dopaminergic systems by effect on locomotor activity in reserpinized mice when a dose of 0.4 micro mol/kg is administered intraperitoneally; format: functional
Mus musculus [6] = test: Antagonism of apomorphine for 0-10 minutes in reserpinized mice when a dose of 0.4 micro mol/kg is administered intraperitoneally; format: functional
Mus musculus [7] = test: Antagonism of apomorphine in reserpinized mice when a dose of 0.4 micro mol/kg is administered intraperitoneally; format: functional
Rattus norvegicus [8] = test: Inhibition of firing rates of dopaminergic neurons in the substantia nigra pars compacta by intravenous injection in rats.; format: functional
Mus musculus [9] = test: Ability to stimulate dopaminergic systems by effect on locomotor activity in reserpinized mice when a dose of 37 micro mol/kg is administered intraperitoneally; format: functional
Mus musculus [10] = test: Antagonism of apomorphine for 10-20 minutes in reserpinized mice when a dose of 37 micro mol/kg is administered intraperitoneally; format: functional
Mus musculus [11] = test: Antagonism of apomorphine for 10-20 minutes in reserpinized mice when a dose of 0.4 micro mol/kg is administered intraperitoneally; format: functional
D(2) dopamine receptor [12] = target: T1, D(2) dopamine receptor (Homo sapiens, UniProt P14416); test: Intrinsic activity from GTP shift using CHO cell membranes expressing dopamine receptor D2; format: functional
T1 sequence (P14416 whole entry): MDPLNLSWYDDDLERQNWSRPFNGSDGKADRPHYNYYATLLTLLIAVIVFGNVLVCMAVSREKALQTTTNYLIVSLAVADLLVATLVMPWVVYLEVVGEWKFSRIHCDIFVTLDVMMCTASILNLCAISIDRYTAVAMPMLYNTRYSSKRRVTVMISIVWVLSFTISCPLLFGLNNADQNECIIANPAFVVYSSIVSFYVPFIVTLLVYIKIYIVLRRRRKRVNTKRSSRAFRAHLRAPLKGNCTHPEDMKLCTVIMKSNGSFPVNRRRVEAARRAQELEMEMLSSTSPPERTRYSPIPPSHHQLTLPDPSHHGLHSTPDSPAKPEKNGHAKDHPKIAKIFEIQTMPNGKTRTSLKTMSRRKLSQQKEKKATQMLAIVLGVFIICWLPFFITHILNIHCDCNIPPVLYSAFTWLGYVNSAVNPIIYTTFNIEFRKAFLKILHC

D(2) dopamine receptor [13] = target: D(2) dopamine receptor (Rattus norvegicus, UniProt P61169); test: Binding affinity for [3H]raclopride-labeled dopamine receptor D2 in rat striatum; format: tissue-based
D(2) dopamine receptor (Rattus norvegicus, UniProt P61169), sequence (P61169 whole entry): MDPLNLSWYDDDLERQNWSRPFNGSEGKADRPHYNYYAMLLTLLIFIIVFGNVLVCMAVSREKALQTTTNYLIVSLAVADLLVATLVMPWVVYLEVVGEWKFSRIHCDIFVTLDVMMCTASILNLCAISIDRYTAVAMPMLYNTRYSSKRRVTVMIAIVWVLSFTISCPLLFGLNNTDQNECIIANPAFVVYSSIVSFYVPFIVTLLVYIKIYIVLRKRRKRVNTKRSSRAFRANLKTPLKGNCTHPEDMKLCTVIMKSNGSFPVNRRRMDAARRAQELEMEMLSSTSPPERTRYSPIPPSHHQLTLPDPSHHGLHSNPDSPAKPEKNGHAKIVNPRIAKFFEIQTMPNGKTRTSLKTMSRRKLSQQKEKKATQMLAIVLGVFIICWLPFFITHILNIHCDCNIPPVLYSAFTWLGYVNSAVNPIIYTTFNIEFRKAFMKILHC

D(2) dopamine receptor [14] = target: T1, D(2) dopamine receptor; test: Binding affinity against [3H]U-86,170-labeled dopamine receptor D2 in cloned CHO cells; format: cell-based
Rattus norvegicus [15] = species: Rattus norvegicus; test: Effect on the synthesis rates of serotonin (5-HTP accumulation) in the rat ventral limbic brain region […].; format: functional, Limbic system
Mus musculus [16] = test: Antagonism of apomorphine for 0-10 minutes in reserpinized mice when a dose of 37 micro mol/kg is administered intraperitoneally; format: functional
Mus musculus [17] = test: Antagonism of apomorphine in reserpinized mice when a dose of 3.7 micro mol/kg is administered intraperitoneally; format: functional
Mus musculus [18] = test: Antagonism of apomorphine for 10-20 minutes in reserpinized mice when a dose of 3.7 micro mol/kg is administered intraperitoneally; format: functional
Mus musculus [19] = test: Ability to stimulate dopaminergic systems by effect on locomotor activity in reserpinized mice when a dose of 3.7 micro mol/kg is administered intraperitoneally; format: functional
Mus musculus [20] = test: Antagonism of apomorphine in reserpinized mice when a dose of 43 micro mol/kg is administered intraperitoneally; format: functional
Mus musculus [21] = test: Antagonism of apomorphine for 0-10 minutes in reserpinized mice when a dose of 43 micro mol/kg is administered intraperitoneally; format: functional
Mus musculus [22] = test: Antagonism of apomorphine for 10-20 minutes in reserpinized mice when a dose of 43 micro mol/kg is administered intraperitoneally; format: functional
Mus musculus [23] = test: Ability to stimulate dopaminergic systems by effect on locomotor activity in reserpinized mice when a dose of 43 micro mol/kg is administered intraperitoneally; format: functional
Mus musculus [24] = test: Antagonism of apomorphine for 10-20 minutes in reserpinized mice when a dose of 4.3 micro mol/kg is administered intraperitoneally; format: functional
Rattus norvegicus [25] = test: Effect on the synthesis rates of dopamine (DOPA accumulation) in the rat ventral limbic brain region at 43.2 uM/kg.; format: functional, Limbic system
Mus musculus [26] = test: Antagonism of apomorphine in reserpinized mice when a dose of 4.3 micro mol/kg is administered intraperitoneally; format: functional
Mus musculus [27] = test: Antagonism of apomorphine for 0-10 minutes in reserpinized mice when a dose of 4.3 micro mol/kg is administered intraperitoneally; format: functional
Rattus norvegicus [28] = test: Effect on the synthesis rates of serotonin (5-HTP accumulation) in the rat ventral limbic brain region 43.2 umol/kg.; format: functional, Limbic system
Mus musculus [29] = test: Ability to stimulate dopaminergic systems by effect on locomotor activity in reserpinized mice when a dose of 4.3 micro mol/kg is administered intraperitoneally; format: functional
Mus musculus [30] = test: Time of effect in the isolation-induced aggression behavioral assay in the mouse when a dose of 36 micro mol/kg is administered perorally; format: functional
Felis catus [31] = test: Maximum decrease of arterial blood pressure at sympathetic nerve activity (SND) in anesthetized cat has been observed following 1 mg/kg dose; format: functional; parameters: scale not given: the % may be the effect or the level left
Mus musculus [32] = test: Maximum decrease in temperature when compound is administered through peroral route; format: functional
Mus musculus [33] = test: Time of effect in the isolation-induced aggression behavioral assay in the mouse when a dose of 0.4 micro mol/kg is administered intraperitoneally; format: functional
Mus musculus [34] = species: Mus musculus; test: Time of effect in the face-to-face behavioral assay in the mouse […]; format: functional
Mus musculus [35] = test: Time of effect in the face-to-face behavioral assay in the mouse when a dose of 3.6 micro mol/kg is administered subcutaneously; format: functional
Mus musculus [36] = test: Time of effect in the face-to-face behavioral assay in the mouse when a dose of 0.4 micro mol/kg is administered subcutaneously; format: functional
Mus musculus [37] = test: Effective dose on hypothermia in mouse when administered subcutaneously; format: functional
Mus musculus [38] = test: Maximum decrease in temperature when compound is administered subcutaneously; format: functional
Rattus norvegicus [39] = test: Effect on the synthesis rates of serotonin in the rat ventral limbic brain region 10.7 micro mol/kg.; format: functional, Limbic system
Mus musculus [40] = test: Effective dose on hypothermia in mouse when administered through peroral route; format: functional
Mus musculus [41] = test: Time of effect in the isolation-induced aggression behavioral assay in the mouse when a dose of 11 micro mol/kg is administered perorally; format: functional
Mus musculus [42] = test: Time of effect in the isolation-induced aggression behavioral assay in the mouse when a dose of 3.6 micro mol/kg is administered perorally; format: functional
Rattus norvegicus [43] = test: Inhibition of firing rates of serotonergic neurons in the dorsal raphe nucleus by intravenous injection in rats; format: functional; settings: Rattus norvegicus, Dorsal raphe nucleus, iv; read-out: ED50
Mus musculus [44] = test: Time of effect in the isolation-induced aggression behavioral assay in the mouse when a dose of 0.0 micro mol/kg is administered perorally; format: functional
Felis catus [45] = test: Maximum decrease of sympathetic nerve activity (SND) in anesthetized cat; format: functional; parameters: scale not given: the % may be the effect or the level left
Mus musculus [46] = test: Time of effect in the isolation-induced aggression behavioral assay in the mouse when a dose of 36 micro mol/kg is administered intraperitoneally (*,p<0.05); format: functional
Mus musculus [47] = test: Time of effect in the isolation-induced aggression behavioral assay in the mouse when a dose of 0.0 micro mol/kg is administered intraperitoneally; format: functional
Mus musculus [48] = test: Time of effect in the isolation-induced aggression behavioral assay in the mouse when a dose of 3.6 micro mol/kg is administered intraperitoneally (*,p<0.05); format: functional
Rattus norvegicus [49] = test: Effect on the synthesis rates of dopamine (DOPA accumulation) in the rat ventral limbic brain region at 10.7 micro mol/kg.; format: functional, Limbic system
Mus musculus [50] = test: Time of effect in the face-to-face behavioral assay in the mouse when a dose of 36 micro mol/kg is administered subcutaneously; format: functional

`CCCN1CC[C@H]2Cc3c(O)cccc3C[C@@H]21` showed a Control (Rattus norvegicus [1]) of 20%, a Locomotor activity (Mus musculus [2]) of 109 and an ED50 (Rattus norvegicus [3]) greater than 3.73 µmol/kg. It also gave a Locomotor activity (Mus musculus [4]) of 77, a Locomotor activity (Mus musculus [5]) of 45 and a Locomotor activity (Mus musculus [6]) of 121. The Locomotor activity (Mus musculus [7]) was 81, the ED50 (Rattus norvegicus [8]) was greater than 3.73 µmol/kg and the Locomotor activity (Mus musculus [9]) was 113. It also gave a Locomotor activity (Mus musculus [10]) of 103, a Locomotor activity (Mus musculus [11]) of 119 and an Intrinsic activity (D(2) dopamine receptor [12]) of 18%. For the same compound, the Ki (D(2) dopamine receptor [13]) was greater than 630 nM, the Ki (D(2) dopamine receptor [14]) was 917 nM and the Control (Rattus norvegicus [15]) was 12%. The Locomotor activity (Mus musculus [16]) was 84, the Locomotor activity (Mus musculus [17]) was 86 and the Locomotor activity (Mus musculus [18]) was 119. It also gave a Locomotor activity (Mus musculus [19]) of 1.

Work on `CCCN1CC[C@@H]2Cc3c(O)cccc3C[C@H]21` (racemic) yielded a Locomotor activity (Mus musculus [20]) of 114, an ED50 (Rattus norvegicus [3]) of 0.003 µmol/kg and a Locomotor activity (Mus musculus [21]) of 29. It also gave a Locomotor activity (Mus musculus [5]) of 423, a Locomotor activity (Mus musculus [22]) of 23 and a Locomotor activity (Mus musculus [6]) of 41. For the same compound, the Locomotor activity (Mus musculus [7]) was 98, the Locomotor activity (Mus musculus [23]) was 1539 and the Locomotor activity (Mus musculus [24]) was 38. It also gave a Control (Rattus norvegicus [25]) of -47%, a Locomotor activity (Mus musculus [26]) of 69 and a Locomotor activity (Mus musculus [11]) of 71. For the same compound, the Locomotor activity (Mus musculus [27]) was 46, the Control (Rattus norvegicus [28]) was -4% and the Ki (D(2) dopamine receptor [13]) was 17 nM. It also gave a Ki (D(2) dopamine receptor [14]) of 2.4 nM and a Locomotor activity (Mus musculus [29]) of 912.

`C=CCN1CC[C@@H]2Cc3c(cccc3OC)C[C@H]21` (racemic) gave a Time (Mus musculus [30]) of 393 s, a Control (Felis catus [31]) of 63% and a Max temperature decrease (Mus musculus [32]) of 9.9. It also gave a Time (Mus musculus [33]) of 3 s, a Time (Mus musculus [34]) of 0.9 s and a Time (Mus musculus [35]) of 3.6 s. It also gave a Time (Mus musculus [36]) of 1.5 s, an ED50 (Mus musculus [37]) of 2.6 µM/kg and a Max temperature decrease (Mus musculus [38]) of 7.8. It also gave a Control (Rattus norvegicus [39]) of -39, an ED50 (Mus musculus [40]) of 4.6 µM/kg and a Time (Mus musculus [41]) of 218 s. It also gave a Time (Mus musculus [42]) of 88 s, a Ki (D(2) dopamine receptor [13]) greater than 1000 nM and an ED50 (Rattus norvegicus [43]) of 0.14 µmol/kg. It also gave a Time (Mus musculus [44]) of 73 s, a Control (Felis catus [45]) of 78% and a Time (Mus musculus [46]) of 522 s. It also gave a Time (Mus musculus [47]) of 3 s, a Time (Mus musculus [48]) of 147 s and a Control (Rattus norvegicus [49]) of -26. The Time (Mus musculus [50]) was 6.9 s.
